Results from US5616684A, “Cyclic peptides and use thereof” (priority 1991, dated 1997).
Like-named read-outs stand apart in the source and are kept apart here. Each block holds one molecule with its values, some of them ahead of it. Non-standard residues stand in square brackets, D forms with d. Residues, ends and D or L forms follow the SMILES beside them.

Columns and labels:
[1] = amide bond
[2] = tested on: ETB receptor (guinea pig kidney crude receptor membrane fraction); assay: ETB Radio Receptor Assay *2; assay type: binding; conditions: relative activity (Example 8 given as 100), 125I-endothelin-1, 37° C., 90 minutes
Procedure: ETB Radio Receptor Assay *2
In the endothelin radio receptor assay, guinea pigs' kidneys were used. Guinea pigs (Std Hartrey, male 250 g, Japan SLC Ltd.) were made to have a cerebral concussion and sacrificed by bleeding from carotid arteries to pick up the kidneys and removed fat therefrom to prepare the kidneys. The obtained kidneys were sliced and homogenized by politron homogenizer in 20 ml of 50 mM Tris-HCl buffer [pH 7.4; 20 mM NaHCO3, 0.1 mM PMSF (Phenylmethylsulfonyl Fluoride), 1 mM EDTA (Ethylenediaminetetraacetic acid)] per one kidney. The homogenized kidney was applied to a centrifugation at 1,000×g for 15 minutes and the supernatant was further applied to a centrifugation for 20 minutes at 30,000×g. The resulting precipitate was twice washed with 50 mM Tris-HCl buffer (pH 7.4) containing 0.1 mM PMSF, 1 mM EDTA. The resultant was stored at -80 ° C. as a crude receptor membrane fraction and was used as the suspension in the following buffer when necessary.
740 Bq of ^125 I-endothelin-1 (81.4 TBq/mmol, Du Pont, USA) as a radio ligand, the crude membrane fraction (2.1 μg protein) and samples were added to the following buffer. The reaction was performed at 37° C., for 90 minutes in 0.2 ml of the buffer [50 mM Tris-HCl buffer (pH 7.4) containing 0.1 mM PMSF, 1 mM EDTA, 0.2% bovine serum albumin].
The reaction was stopped by fast filtration on a glass filter (GF/B, Wattman, USA) by Cell Harvestor (290 PHD, Cambridge-Technology, Great Britain), and the filter was three times washed with 50 mM Tris-HCl buffer (pH 7.4). Radio activity remained on the filter was assayed by a gamma counter.

[3] = molecular target: T1, endothelin receptor A (ETA) (Sus scrofa, UniProt Q29010); assay: Assay of Affinity for Receptor (1): Binding Activity on ETA Receptor; set-up: key to Binding Activity on ET Receptor (R. act.) ETA: relative binding activity; reference cyclic pentapeptide = 1.0; conditions: specific activity, binding activity of cyclo[-D-Glu-Ala-D-aIle-Leu-D-Trp-] taken as 1.0; porcine heart membrane fraction, 125I-labeled endothelin-1, 25° C., 1 hour
T1 construct: A membrane fraction prepared from the porcine heart; from tissue; host or cells: porcine heart membrane fraction
T1 sequence (Q29010 21-427): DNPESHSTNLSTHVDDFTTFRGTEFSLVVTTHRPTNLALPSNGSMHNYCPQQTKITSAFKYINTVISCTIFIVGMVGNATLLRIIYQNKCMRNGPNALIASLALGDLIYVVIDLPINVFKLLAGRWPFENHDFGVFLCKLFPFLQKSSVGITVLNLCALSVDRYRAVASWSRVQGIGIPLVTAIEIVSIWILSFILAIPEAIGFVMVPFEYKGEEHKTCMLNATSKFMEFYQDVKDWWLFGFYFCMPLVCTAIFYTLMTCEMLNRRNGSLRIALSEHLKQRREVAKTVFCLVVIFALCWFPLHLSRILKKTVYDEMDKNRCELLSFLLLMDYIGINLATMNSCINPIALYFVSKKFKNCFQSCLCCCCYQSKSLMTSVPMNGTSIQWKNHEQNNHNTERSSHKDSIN
Procedure: Assay of Affinity for Receptor (1) . . . Binding Activity on ETA Receptor
A membrane fraction prepared from the porcine heart was diluted to 0.15 mg/ml by using a buffer solution for assay, and 100 μl of the resulting suspension of the membrane fraction was poured into each assay tube to use for assay. To this suspension of the membrane fraction was added 2 μl of 5 nM ^125 I-labeled endothelin-1 solution. Further, 3 μl of a test peptide solution was added thereto, followed by incubation at a temperature of 25° C. for 1 hour. Then, the resulting suspension was diluted with 900 μl of the buffer solution for assay cooled with ice, and thereafter separated into a supernatant and a precipitate by centrifugation at 12,000×g for 10 minutes. Cell membranes and an endothelin receptor A (ETA) embedded therein were contained in the precipitate, and radioactive iodine-labeled endothelin combined with the receptor was also recovered in the precipitate. Accordingly, the amount of radioactive iodine-labeled endothelin combined with the endothelin receptor A (ETA) was determined by measuring the amount of radioactive iodine contained in the precipitate with a gamma-ray counter. The cyclic pentapeptide described in Japanese Patent Application No. 2-413828/1990, cyclo[-D-Glu-Ala-D-aIle-Leu-D-Trp-], was used as a control compound. The numerical value of ETA shown in Table 1 is the value of specific activity, taking the binding activity of this cyclic pentapeptide on the receptor A as 1.0. The binding activity (IC50) of this cyclic pentapeptide on the ETA receptor is 2×10^-6 M.

Structure (SMILES): CC(C)C[C@@H]1NC(=O)[C@@H](CC(C)C)NC(=O)[C@H](CC(=O)O)NC(=O)[C@H](CCCNC(=O)Cc2c[nH]c3ccccc23)NC(=O)[C@@H](CC(=O)O)NC(=O)[C@@H](Cc2c[nH]c3ccccc23)NC1=O [cyclo[-D-Asp-Orn(COCH2 -Ind)-Asp-D-Leu-Leu-D-Trp-]]
ring closure, yield of all isomers ([1]; from CC(C)C[C@H](NC(=O)[C@@H](CC(C)C)NC(=O)[C@H](CC(=O)OCc1ccccc1)NC(=O)[C@H](CCCNC(=O)Cc1c[nH]c2ccccc12)NC(=O)OC(C)(C)C)C(=O)N[C@H](Cc1c[nH]c2ccccc12)C(=O)N[C@H](CC(=O)OCc1ccccc1)C(=O)O, 4 steps): 12.5%

Structure (SMILES): CC(C)C[C@@H]1NC(=O)C2(CCC2)NC(=O)[C@H](CC(=O)O)NC(=O)[C@H](Cc2c[nH]c3ccccc23)NC(=O)[C@@H](CC(=O)O)NC(=O)[C@@H](Cc2c[nH]c3ccccc23)NC1=O [cyclo[-D-Asp-Trp-Asp-Acbu-Leu-D-Trp-]]
ring closure, yield of all isomers ([1]; from CC(C)C[C@H](NC(=O)C1(NC(=O)OC(C)(C)C)CCC1)C(=O)N[C@H](Cc1c[nH]c2ccccc12)C(=O)N[C@H](CC(=O)OCc1ccccc1)C(=O)N[C@@H](Cc1c[nH]c2ccccc12)C(=O)N[C@@H](CC(=O)OCc1ccccc1)C(=O)O, HONB/DCC (active ester), TEA, DMF, 4.95 mM, 4 steps): 10.4%

Structure (SMILES): CC(C)C[C@@H]1NC(=O)[C@@H](CC(C)C)NC(=O)[C@H](C)NC(=O)[C@H](CCC(=O)O)NC(=O)[C@@H](CC(=O)O)NC(=O)[C@@H](Cc2c[nH]c3ccccc23)NC1=O [cyclo[-D-Asp-Glu-Ala-D-Leu-Leu-D-Trp-]]
ring closure, yield of all isomers ([1]; from CC(C)C[C@H](NC(=O)[C@@H](CC(C)C)NC(=O)[C@H](C)NC(=O)[C@H](CCC(=O)OCc1ccccc1)NC(=O)[C@@H](CC(=O)OCc1ccccc1)NC(=O)[C@@H](Cc1c[nH]c2ccccc12)NC(=O)OC(C)(C)C)C(=O)O, HONB/DCC (active ester), TEA, DMF, 4.97 mM, 16.0 h, 4 steps): 20.6%

Structure (SMILES): CC(C)C[C@@H]1NC(=O)[C@@H](CC(C)C)NC(=O)[C@H](CC(=O)OCc2ccccc2)NC(=O)[C@@H]2C[C@@H](OCc3ccccc3)CN2C(=O)[C@@H](CC(=O)OCc2ccccc2)NC(=O)[C@@H](Cc2c[nH]c3ccccc23)NC1=O [cyclo[-D-Asp(OBzl)-Hyp(Bzl)-Asp(OBzl)-D-Leu-Leu-D-Trp-]]
ring closure, yield of all isomers ([1]; from CC(C)C[C@H](NC(=O)[C@@H](CC(C)C)NC(=O)[C@H](CC(=O)OCc1ccccc1)NC(=O)[C@@H]1C[C@@H](OCc2ccccc2)CN1C(=O)[C@@H](CC(=O)OCc1ccccc1)NC(=O)[C@@H](Cc1c[nH]c2ccccc12)NC(=O)OC(C)(C)C)C(=O)O, HONB/DCC (active ester), then TEA, DMF, 9.5 mM, 16.0 h, 3 steps): 82.6%

Structure (SMILES): CC(C)C[C@@H]1NC(=O)[C@@H](CC(C)C)NC(=O)[C@H](CC(=O)O)NC(=O)[C@H](CCCNC(=O)c2ccccc2)NC(=O)[C@@H](CC(=O)O)NC(=O)[C@@H](Cc2c[nH]c3ccccc23)NC1=O [cyclo[-D-Asp-Orn(COPh)-Asp-D-Leu-Leu-D-Trp-]]
ring closure, yield of all isomers ([1]; from CC(C)C[C@H](NC(=O)[C@@H](CC(C)C)NC(=O)[C@H](CC(=O)OCc1ccccc1)NC(=O)[C@H](CCCNC(=O)c1ccccc1)NC(=O)OC(C)(C)C)C(=O)N[C@H](Cc1c[nH]c2ccccc12)C(=O)N[C@H](CC(=O)OCc1ccccc1)C(=O)O, HONB/DCC (active ester), TEA, DMF, 5.03 mM, 4 steps): 48.1%

Structure (SMILES): CC(C)C[C@@H]1NC(=O)[C@@H](C(C)(C)C)NC(=O)[C@H](CC(=O)O)NC(=O)[C@H](Cc2c[nH]c3ccccc23)NC(=O)[C@@H](CC(=O)O)NC(=O)[C@@H](Cc2c[nH]c3ccccc23)NC1=O [cyclo[-D-Asp-Trp-Asp-D-tLeu-Leu-D-Trp-]]
ring closure, yield of all isomers ([1]; from CC(C)C[C@H](NC(=O)[C@H](NC(=O)OC(C)(C)C)C(C)(C)C)C(=O)N[C@H](Cc1c[nH]c2ccccc12)C(=O)N[C@H](CC(=O)OCc1ccccc1)C(=O)N[C@@H](Cc1c[nH]c2ccccc12)C(=O)N[C@@H](CC(=O)OCc1ccccc1)C(=O)O, HONB/DCC (active ester), then TEA, DMF, 5.03 mM, 16.0 h, 4 steps): 42.8%

Structure (SMILES): CC(C)C[C@@H]1NC(=O)[C@@H](CC(C)C)NC(=O)[C@H](CC(=O)O)NC(=O)[C@H](CCCNC(=O)Cc2ccccc2)NC(=O)[C@@H](CC(=O)O)NC(=O)[C@@H](Cc2c[nH]c3ccccc23)NC1=O [cyclo[-D-Asp-Orn(COCH2 Ph)-Asp-D-Leu-Leu-D-Trp-]]
ring closure, yield of all isomers ([1]; from CC(C)C[C@H](NC(=O)[C@@H](CC(C)C)NC(=O)[C@H](CC(=O)OCc1ccccc1)NC(=O)[C@H](CCCNC(=O)Cc1ccccc1)NC(=O)OC(C)(C)C)C(=O)N[C@H](Cc1c[nH]c2ccccc12)C(=O)N[C@H](CC(=O)OCc1ccccc1)C(=O)O, HONB/DCC (active ester), TEA, DMF, 4.66 mM, 4 steps): 2.9%

Structure (SMILES): CC(C)C[C@@H]1NC(=O)[C@@H](CC(C)C)NC(=O)[C@H](CC(=O)O)NC(=O)[C@H](CC(=O)NCCc2ccccc2)NC(=O)[C@@H](CC(=O)O)NC(=O)[C@@H](Cc2c[nH]c3ccccc23)NC1=O [cyclo[-D-Asp-Asn(CH2 CH2 Ph)-Asp-D-Leu-Leu-D-Trp-]]
ring closure, yield of all isomers ([1]; from CC(C)C[C@H](NC(=O)[C@@H](CC(C)C)NC(=O)[C@H](CC(=O)OCc1ccccc1)NC(=O)[C@H](CC(=O)NCCc1ccccc1)NC(=O)[C@@H](CC(=O)OCc1ccccc1)NC(=O)[C@@H](Cc1c[nH]c2ccccc12)NC(=O)OC(C)(C)C)C(=O)O, HONB/DCC (ONB active ester), then TEA, DMF, 3.46 mM, 16.0 h, 4 steps): 24.1%

Structure (SMILES): CC(C)C[C@@H]1NC(=O)[C@@H](CC(C)C)NC(=O)[C@H](CC(=O)O)NC(=O)[C@H](CC(=O)NCCc2c[nH]c3ccccc23)NC(=O)[C@@H](CC(=O)O)NC(=O)[C@@H](Cc2c[nH]c3ccccc23)NC1=O [cyclo[-D-Asp-Asn(CH2 CH2 -Ind)-Asp-D-Leu-Leu-D-Trp-]]
ring closure, yield of all isomers ([1]; from CC(C)C[C@H](NC(=O)[C@@H](CC(C)C)NC(=O)[C@H](CC(=O)OCc1ccccc1)NC(=O)[C@H](CC(=O)NCCc1c[nH]c2ccccc12)NC(=O)[C@@H](CC(=O)OCc1ccccc1)NC(=O)[C@@H](Cc1c[nH]c2ccccc12)NC(=O)OC(C)(C)C)C(=O)O, 4 steps): 19.4%

Structure (SMILES): CC(C)C[C@@H]1NC(=O)[C@@H](CC(C)C)NC(=O)[C@H](C)NC(=O)[C@H](CC(=O)O)NC(=O)[C@@H](CC(=O)O)NC(=O)[C@@H](Cc2c[nH]c3ccccc23)NC1=O [cyclo[-D-Asp-Asp-Ala-D-Leu-Leu-D-Trp-]]
ring closure, yield of all isomers ([1]; from CC(C)C[C@H](NC(=O)[C@@H](CC(C)C)NC(=O)[C@H](C)NC(=O)[C@H](CC(=O)OCc1ccccc1)NC(=O)[C@@H](CC(=O)OCc1ccccc1)NC(=O)[C@@H](Cc1c[nH]c2ccccc12)NC(=O)OC(C)(C)C)C(=O)O, HONB/DCC (active ester), TEA, DMF, 5.04 mM, 16.0 h, 4 steps): 17.8%

Binding Activity on ET Receptor (R. act.) ET8 *2 [2]: 43
Binding Activity on ET Receptor (R. act.) ETA [3]: 15
Structure (SMILES): CC(C)C[C@@H]1NC(=O)[C@@H](CC(C)C)NC(=O)[C@H](CC(=O)O)NC(=O)[C@H](Cc2c[nH]cn2)NC(=O)[C@@H](CC(=O)O)NC(=O)[C@@H](Cc2c[nH]c3ccccc23)NC1=O [Example 83, Cyclo[--D--Asp--His--Asp--D--Leu--Leu--D--Trp--]] (cyclo(D[dL]L[dW][dD]H))
